The values that follow come from patent US7973162B2, “Modulators of muscarinic receptors” (Vertex Pharmaceuticals Incorporated, priority 2007, dated 2011).

Bounds are passed on as bounds.

Common to all, as to format: cell-based
One test has as its target T1, M4 muscarinic receptor (Homo sapiens, UniProt P08173).
T1 construct: expressed in transfected cells; host or cells: CHO (M4-CHO)
T1 sequence (P08173 1-479): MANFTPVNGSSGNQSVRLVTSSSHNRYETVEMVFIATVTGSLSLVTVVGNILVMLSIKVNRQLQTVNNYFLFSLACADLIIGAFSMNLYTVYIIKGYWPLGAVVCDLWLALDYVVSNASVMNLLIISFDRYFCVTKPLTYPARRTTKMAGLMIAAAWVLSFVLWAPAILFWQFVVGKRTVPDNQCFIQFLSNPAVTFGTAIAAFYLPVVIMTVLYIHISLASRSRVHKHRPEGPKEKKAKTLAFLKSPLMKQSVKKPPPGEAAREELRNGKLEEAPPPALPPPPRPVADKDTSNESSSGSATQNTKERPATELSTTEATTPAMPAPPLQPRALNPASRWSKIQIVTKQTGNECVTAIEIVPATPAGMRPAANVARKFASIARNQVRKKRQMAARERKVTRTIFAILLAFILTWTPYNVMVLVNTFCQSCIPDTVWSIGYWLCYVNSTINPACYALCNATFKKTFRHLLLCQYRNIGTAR
Briefly: Functional mobilization of intracellular calcium (FLIPR), M4-CHO cells. The note with it: for M4 Efficacy / Emax: 100% efficacy = maximum response obtained with the Carbachol control; for EC50: CHO cells expressing M4, calcium mobilization. As to the method: (§1) Functional Mobilization of Intracellular Calcium to Determine Muscarinic Receptor Activity:
(§2) CHO cells expressing muscarinic receptors (M1 to M5) are grown as monolayers in tissue culture flasks at 37° C. in a humidified atmosphere containing 5% CO2 and passaged every 3-5 days. The growth media is Dulbecco's modified eagles medium (DMEM, Gibco Cat# 12430-054), containing 25 mM Hepes and supplemented with Fetal Bovine Serum (Hyclone, cat #SH30071.03), 0.1 mM of MEM non-essential amino acids (GIBCO, Cat #11140-050), 1 mM MEM Sodium Pyruvate (GIBCO Cat #11360-070) and 100 units/ml of Penicillin G and 100 μg/ml of Streptomycin (GIBCO Cat #15140-122). The recombinant muscarinic receptor cell lines are grown under antibiotic pressure with media containing 25 μg/ml zeocin and 500 μg/ml G418 (M1-CHO), 4 μg/ml puromycin, 50 μg/ml zeocin and 2.5 μg/ml blasticidin (M2 and M4-CHO) or 50 μg/ml zeocin and 4 μg/ml puromycin (M3 and M5-CHO).
(§3) Cells are harvested at 80-90% confluence using Versene (GIBCO Cat #15040-066), collected by centrifugation and seeded 18-24 hrs prior to running the calcium assay at a density of 5,000-10,000 cells/well in […], clear-bottomed 384-well plates (BD Biocoat, poly-D-lysine, Cat#356663). The day of the experiment, the cells are washed with a plate washer (Bioteck Instruments, ELX 405) using bath1 buffer (140-mM NaCl, 4.5-mM KCl, 2-mM CaCl2, 1-mM MgCl2, 10-mM Hepes-Na, 10-mM Glucose, pH 7.4, with NaOH) containing 1 mM Probenecid. Next, the calcium dye Fluo-3 (25 μl/well of Fluo-3 AM at 4 μM, Molecular Probes F-1241, in Bath 1 buffer containing 1 mM Probenecid) is added to the 25 μl of Bath 1 remaining in each well after the plate wash and the dye is loaded at 37° C. in the tissue culture incubator for 60-90 min. The fluorescent dye is removed using the plate washer with Bath 1 containing 1 mM Probenecid, leaving 25 μl/well of this solution after the wash. Alternatively, cells can be loaded with the calcium indicator from Molecular Devices (Calcium 3 Assay Reagents, Cat #R7181) adding 5 μl of a 5× solution dye in Bath 1 containing 1 mM Probenecid (10 ml per dye flask cat #R7182 to generate a solution 20×) to 20 μl of the same buffer. After loading for 60 min, the experiment can be run without having to remove the dye.
(§4) Compounds are prepared at a 2× fold concentration in a 96-well plate (round bottom, Costar Corning cat #3656), by reconstituting the pre-spotted compounds in bath 1 containing 1 mM probenecid. The final concentration DMSO is 0.5%, and the amount of DMSO is normalized across the assay plate. To determine an agonist action of the compounds on muscarinic receptors, the reconstituted compounds are added (25 μl compound/well) to the cell assay plate (containing 25 μl/well) using the multi-channel robotic system of the FLIPR 3 Instrument (Molecular Devices, Sunnyvale, Calif.). To determine a functional inhibitory action of the compounds on muscarinic receptors, the reconstituted compounds are added (25 μl compound/well) to the assay plate and pre-incubated for 15 min prior to adding 25 μl of Carbachol at 3× the EC80 for each muscarinic subtype. Alternatively, the compounds can be co-applied simultaneously with the agonist. In both assay modes, the fluorescence is recorded for 60 sec (excitation wavelength is […] and emission wavelength 540 nm) using the FLIPR 3 instrument.
(§5) The potency, efficacy and selectivity of the muscarinic compounds were evaluated by screening the compound activity across the whole family (M1 to M5 cells). Compounds were also screened for activity on other proteins such as other GPCRs and ion channels to determine selectivity on M4 receptors.
(§6) Examples of activities and efficacies of the muscarinic compounds of formulae (I, Ia, and Ib) on modulating M1 and M4 receptors are shown below in Table 3. […]
For orientation: Calcium assays in cells follow changes in intracellular calcium, usually with a dye or a luminescent sensor.

For the next test, the target named is T2, M2 muscarinic receptor (Homo sapiens, UniProt P08172).
T2 construct: expressed in transfected cells; host or cells: CHO (M2-CHO)
T2 sequence (P08172 1-466): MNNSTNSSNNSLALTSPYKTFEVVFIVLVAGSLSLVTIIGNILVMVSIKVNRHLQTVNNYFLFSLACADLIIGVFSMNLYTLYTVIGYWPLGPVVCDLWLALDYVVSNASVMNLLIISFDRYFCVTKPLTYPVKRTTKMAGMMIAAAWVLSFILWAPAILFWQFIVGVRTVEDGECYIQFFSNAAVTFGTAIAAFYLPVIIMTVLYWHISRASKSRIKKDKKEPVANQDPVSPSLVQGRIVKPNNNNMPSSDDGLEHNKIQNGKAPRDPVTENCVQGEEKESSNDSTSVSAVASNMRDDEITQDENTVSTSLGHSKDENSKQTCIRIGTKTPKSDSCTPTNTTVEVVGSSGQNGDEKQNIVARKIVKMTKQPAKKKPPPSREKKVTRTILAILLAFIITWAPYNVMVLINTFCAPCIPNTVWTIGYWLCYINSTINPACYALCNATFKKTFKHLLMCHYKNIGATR
Briefly: Functional mobilization of intracellular calcium (FLIPR), M2-CHO cells. The note with it: for M2 Efficacy / Emax: 100% efficacy = maximum response obtained with the Carbachol control; for EC50: CHO cells expressing M2, calcium mobilization. How it is done:
as §1, §2, §3, §4, §5, §6

In the next test the target is T3, M3 muscarinic receptor (Homo sapiens, UniProt P20309).
T3 construct: expressed in transfected cells; host or cells: CHO (M3-CHO)
T3 sequence (P20309 whole entry): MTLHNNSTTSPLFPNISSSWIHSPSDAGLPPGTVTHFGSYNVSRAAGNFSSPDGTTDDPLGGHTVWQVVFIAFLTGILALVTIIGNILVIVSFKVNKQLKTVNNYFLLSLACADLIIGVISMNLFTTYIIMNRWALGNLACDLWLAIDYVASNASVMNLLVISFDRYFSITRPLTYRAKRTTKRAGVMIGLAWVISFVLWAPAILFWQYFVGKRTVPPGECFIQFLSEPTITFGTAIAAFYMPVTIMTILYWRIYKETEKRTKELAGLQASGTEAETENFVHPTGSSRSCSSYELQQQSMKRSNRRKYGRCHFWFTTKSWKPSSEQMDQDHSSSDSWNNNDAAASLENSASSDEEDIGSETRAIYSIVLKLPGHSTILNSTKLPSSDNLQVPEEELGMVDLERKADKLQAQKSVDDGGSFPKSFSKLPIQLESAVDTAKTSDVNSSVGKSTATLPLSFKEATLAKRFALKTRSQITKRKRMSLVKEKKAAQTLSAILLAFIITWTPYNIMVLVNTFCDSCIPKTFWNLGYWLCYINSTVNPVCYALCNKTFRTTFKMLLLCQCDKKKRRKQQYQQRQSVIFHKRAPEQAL
Briefly: Functional mobilization of intracellular calcium (FLIPR), M3-CHO cells. The note with it: for M3 Efficacy / Emax: 100% efficacy = maximum response obtained with the Carbachol control; for EC50: CHO cells expressing M3, calcium mobilization. As to the method: as §1, §2, §3, §4, §5, §6

Another test deals with T4, M1 muscarinic receptor (Homo sapiens, UniProt P11229).
T4 construct: expressed in transfected cells; host or cells: CHO (M1-CHO)
T4 sequence (P11229 1-460): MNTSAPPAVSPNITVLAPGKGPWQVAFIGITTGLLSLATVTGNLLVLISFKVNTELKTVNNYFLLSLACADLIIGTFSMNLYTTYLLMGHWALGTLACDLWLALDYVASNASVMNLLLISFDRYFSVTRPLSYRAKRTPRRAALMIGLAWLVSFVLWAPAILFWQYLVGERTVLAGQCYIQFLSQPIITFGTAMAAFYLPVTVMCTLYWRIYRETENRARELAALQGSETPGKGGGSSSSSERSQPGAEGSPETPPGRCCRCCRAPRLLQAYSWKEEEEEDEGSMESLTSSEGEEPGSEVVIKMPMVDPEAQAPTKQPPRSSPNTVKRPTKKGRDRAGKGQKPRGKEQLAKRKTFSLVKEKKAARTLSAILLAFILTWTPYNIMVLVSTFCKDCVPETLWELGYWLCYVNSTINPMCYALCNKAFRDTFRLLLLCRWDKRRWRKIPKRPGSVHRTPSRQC
Briefly: Functional mobilization of intracellular calcium (FLIPR), M1-CHO cells. The note with it: for M1 Efficacy / Emax: 100% efficacy = maximum response obtained with the Carbachol control; for EC50: CHO cells expressing M1, calcium mobilization. How it is done: as §1, §2, §3, §4, §5, §6

By EC50 is commonly meant the midpoint of the concentration-response curve. Take `CN1C(=O)C[C@@H]2CC3(CCN(C4CCCCC4)CC3)c3ccccc3[C@@H]21` [Compound 24]: at M4 muscarinic receptor, the “M4 Efficacy” value is reported as “++ (efficacy was calculated to be from 100% to 25%)” and the EC50 is less than 2 µM. At M2 muscarinic receptor, the “M2 Efficacy” value is “+ (efficacy was calculated to be less than 25%)” and the 50% effective concentration (EC50) was more than 5 µM. For the same molecule, at M3 muscarinic receptor, the “M3 Efficacy” value is listed as “+ (efficacy was calculated to be less than 25%)” and the concentration for a half-maximal effect (EC50) was more than 5 µM. Also, at M1 muscarinic receptor, the “M1 Efficacy” value is reported as “++ (efficacy was calculated to be from 100% to 25%)” and the EC50 is more than 5 µM.
Usually Emax stands for the size of the effect at its maximum, as opposed to the concentration needed. `O=C1C[C@@H]2CC3(CCN(C[C@@H]4C[C@H]5C=C[C@H]4C5)CC3)c3ccccc3[C@@H]2N1` [Compound 25]: the maximal response (Emax) on M4 muscarinic receptor, on M2 muscarinic receptor, at M3 muscarinic receptor and at M1 muscarinic receptor was 25 to 100% throughout. The EC50 on M4 muscarinic receptor was less than 2 µM; on M2 muscarinic receptor, less than 2 µM; on M3 muscarinic receptor, more than 5 µM; on M1 muscarinic receptor it was less than 2 µM.
As to `c1ccc2c(c1)C1OCCC1CC21CCN(C2CCCCC2)CC1` (stereo not drawn) [Compound 26], the Emax was less than 25% on M4 muscarinic receptor, less than 25% on M2 muscarinic receptor, less than 25% at M3 muscarinic receptor and 25 to 100% on M1 muscarinic receptor. Moreover, the EC50 at M4 muscarinic receptor is less than 2 µM; on M2 muscarinic receptor it was more than 5 µM; on M3 muscarinic receptor, more than 5 µM; at M1 muscarinic receptor, more than 5 µM.
Regarding `CC(=O)N1CC[C@@H]2CC3(CCN(C4CCCCC4)CC3)c3ccccc3[C@@H]21` [Compound 27], the Emax at M4 muscarinic receptor, at M2 muscarinic receptor, at M3 muscarinic receptor and on M1 muscarinic receptor was less than 25% in each case. Further, the EC50 on M4 muscarinic receptor, on M2 muscarinic receptor, at M3 muscarinic receptor and at M1 muscarinic receptor was more than 5 µM each time.
As to `O=C1CC2CC3(CCN(C4CC5CCC(C5)C4)CC3)c3ccccc3C2O1` (stereo not drawn) [Compound 28], the maximal response (Emax) on M4 muscarinic receptor was 25 to 100%; at M2 muscarinic receptor it was less than 25%; at M3 muscarinic receptor it was less than 25%; at M1 muscarinic receptor it was 25 to 100%. Besides, the EC50 on M4 muscarinic receptor was less than 2 µM; at M2 muscarinic receptor it was more than 5 µM; at M3 muscarinic receptor, more than 5 µM; on M1 muscarinic receptor, less than 2 µM.
Take `CN1C(=O)C[C@@H]2CC3(CCN(C4CCCCCC4)CC3)c3ccccc3[C@@H]21` [Compound 29]: at M4 muscarinic receptor, the “M4 Efficacy” value was “++ (efficacy was calculated to be from 100% to 25%)” and the concentration for a half-maximal effect (EC50) is less than 2 µM. Moreover, on M2 muscarinic receptor, the “M2 Efficacy” value is recorded as “++ (efficacy was calculated to be from 100% to 25%)” and the EC50 is less than 2 µM. Also, on M3 muscarinic receptor, the “M3 Efficacy” value is given as “+ (efficacy was calculated to be less than 25%)” and the EC50 was more than 5 µM. In addition, at M1 muscarinic receptor, the “M1 Efficacy” value is on record as “++ (efficacy was calculated to be from 100% to 25%)” and the concentration for a half-maximal effect (EC50) was less than 2 µM.
As for `O=C1C[C@@H]2[C@H](N1)c1ccccc1C21CCN(C[C@H]2C[C@@H]3CC[C@@H]2C3)CC1` [Compound 30], the Emax is 25 to 100% at M4 muscarinic receptor, 25 to 100% at M2 muscarinic receptor, less than 25% on M3 muscarinic receptor and 25 to 100% at M1 muscarinic receptor. Moreover, the EC50 was less than 2 µM at M4 muscarinic receptor, 2 to 5 µM on M2 muscarinic receptor, more than 5 µM on M3 muscarinic receptor and less than 2 µM on M1 muscarinic receptor.
As to `O=C1C[C@@H]2[C@H](N1)c1ccccc1C21CCN(C2CCCCC2)CC1` [Compound 31], the Emax is 25 to 100% at M4 muscarinic receptor, less than 25% on M2 muscarinic receptor, less than 25% at M3 muscarinic receptor and 25 to 100% at M1 muscarinic receptor. Also, the EC50 at M4 muscarinic receptor is less than 2 µM; on M2 muscarinic receptor, 2 to 5 µM; at M3 muscarinic receptor it was more than 5 µM; at M1 muscarinic receptor, less than 2 µM.
`O=C1C[C@@H]2[C@H](N1)c1ccccc1C21CCN(C2C[C@H]3CC[C@@H]2C3)CC1` (stereo partly drawn) [Compound 32]: the Emax on M4 muscarinic receptor was 25 to 100%; on M2 muscarinic receptor, 25 to 100%; at M3 muscarinic receptor, less than 25%; at M1 muscarinic receptor, 25 to 100%. Besides, the half-maximal effective concentration (EC50) is less than 2 µM on M4 muscarinic receptor, 2 to 5 µM on M2 muscarinic receptor, more than 5 µM at M3 muscarinic receptor and 2 to 5 µM at M1 muscarinic receptor.
